Experimental data taken from US20230109839A1, “THERAPEUTIC AGENT FOR TAUOPATHIES” (SUMITOMO PHARMA CO., LTD., priority 2020, published 2023).
Each block holds one molecule with its values, some of them ahead of it.

Molecular target: T1, human Nav1.1 (Homo sapiens, UniProt P35498)
T1 construct: host or cells: HEK293
Experiment: Amplification of Nav1.1-derived voltage-gated sodium current (Nav1.1 current), automated patch clamp (Test 1)
Type: cell-based
Conditions: for activation at 1 µM: HEK293, Concentration for evaluation 1 μM; for activation at 1 µM / activation at 3 µM / activation at 50 µM / activation at 10 µM: read-out: Nav1.1 current amplification rate (%); for activation at 3 µM: HEK293, Concentration for evaluation 3 μM; for activation at 50 µM: HEK293, Concentration for evaluation 50 μM; for activation at 10 µM: HEK293, Concentration for evaluation 10 μM
In short: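 HEK293 cells stably expressing human Nav1.1, restricted to cells with >500 pA current, were recorded by automated voltage-clamp patch clamp with a ramp voltage stimulus. Compounds were applied in HEPES-buffered extracellular solution with 1% DMSO. Amplification (%) = 100×(peak or AUC after/before compound)−100.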

[1] = HEK293 cell line stably expressing human Nav1.1
[2] = Concentration for evaluation 1 μM, HEK293 cell line stably expressing human Nav1.1
[3] = Concentration for evaluation 50 μM, HEK293 cell line stably expressing human Nav1.1
[4] = concentration for evaluation 1 μM, HEK293 stably expressing human Nav1.1

SMILES: CC1(C)CC=C(c2cnc3cnn(CC(=O)Nc4ccn5ccnc5c4)c3n2)CC1 [Example 737]
activation at 1 µM [1]: 249%

SMILES: Cc1nn(CC(=O)Nc2ccn3ncnc3c2)c2nc(N3CCC4(CCC4)C3)cnc12 [Example 738]
activation at 3 µM [1]: 22%

SMILES: Cc1nn(CC(=O)Nc2ccc3ncnn3c2)c2nc(N3CCC4(CCC4)C3)cnc12 [Example 739]
activation at 3 µM [1]: 10%

SMILES: CC1CC=C(c2cnc3cnn(CC(=O)N4CCN(c5cccnc5)CC4)c3n2)CC1 (stereo not shown) [Example 740]
activation at 1 µM [1]: 91%

SMILES: Cc1cc(NC(=O)Cn2ncc3ncc(N4CCC5(CC5)C(F)(F)C4)nc32)cc2ncnn12 [Example 741]
activation at 1 µM [1]: 61%

SMILES: Cc1ccc(-c2cnc3cnn(CC(=O)N4CCN(c5cccnc5)CC4)c3n2)c(F)c1 [Example 742]
activation at 1 µM [1]: 32%

SMILES: Cc1ccc(-c2cnc3cnn(CC(=O)N4CCN(c5ccncc5)CC4)c3n2)c(F)c1 [Example 743]
activation at 50 µM [1]: 39%

SMILES: O=C(Cn1ncc2ncc(N3CCC4(CC4)C(F)(F)C3)nc21)Nc1ccn2ccnc2c1 [Example 744]
activation at 1 µM [1]: 147%

SMILES: Cc1cc(NC(=O)Cn2ncc3ncc(N(C)CC4CC4)nc32)cc2ncnn12 [Example 745]
activation at 1 µM [1]: 43%

SMILES: O=C(Cn1ncc2ncc(N3CCC4(CC4)C(F)(F)C3)nc21)Nc1ccc(-n2ccnc2)nc1 [Example 747]
activation at 1 µM [1]: 73%

SMILES: CN(CC1CC1)c1cnc2cnn(CC(=O)Nc3ccc(C#N)nc3)c2n1 [Example 748]
activation at 1 µM [1]: 17%

SMILES: CC1CC2(C1)CN(c1cnc3cnn(CC(=O)Nc4ccc(C#N)nc4)c3n1)C2 [Example 749]
activation at 10 µM [1]: 63%

SMILES: CN(c1cnc2cnn(CC(=O)NCCc3ccccc3F)c2n1)C1CC2(CC2)C1 [Example 750]
activation at 10 µM [1]: 27%

SMILES: CN(c1cnc2cnn(CC(=O)N3Cc4ccc(Br)cc4C3)c2n1)C1CC2(CC2)C1 [Example 751]
activation at 10 µM [1]: 121%

SMILES: CN(c1cnc2cnn(CC(=O)Nc3cnc4cccnc4c3)c2n1)C1CC2(CC2)C1 [Example 752]
activation at 1 µM [1]: 135%

SMILES: N#Cc1cnc(NC(=O)Cn2ncc3ncc(N4CCC5(CC5)C(F)(F)C4)nc32)cn1 [Example 754]
activation at 1 µM [1]: 14%

SMILES: CN(c1cnc2cnn(CC(=O)Nc3cnc4cccnc4c3)c2n1)C1CC(C)(C)C1 [Example 755]
activation at 1 µM [1]: 245%

SMILES: CN(c1cnc2cnn(CC(=O)Nc3ccc(C#N)nc3)c2n1)C1CC(C)(C)C1 [Example 756]
activation at 1 µM [1]: 104%

SMILES: N#Cc1ccc(NC(=O)Cn2ncc3ncc(N4CCC5(CC5)C(F)(F)C4)nc32)nc1 [Example 757]
activation at 1 µM [1]: 10%

SMILES: CN(c1cnc2cnn(CC(=O)Nc3ccc4ncncc4c3)c2n1)C1CC(C)(C)C1 [Example 758]
activation at 1 µM [1]: 61%

SMILES: CN(c1cnc2cnn(CC(=O)Nc3ccc4ncncc4c3)c2n1)C1CC2(CC2)C1 [Example 759]
activation at 1 µM [1]: 57%

SMILES: CN(CC1(C)CC1)c1cnc2cnn(CC(=O)Nc3cnc4cccnc4c3)c2n1 [Example 760]
activation at 1 µM [1]: 104%

SMILES: CN(c1cnc2cnn(CC(=O)Nc3ccc(C#N)nn3)c2n1)C1CC(C)(C)C1 [Example 761]
activation at 1 µM [1]: 43%

SMILES: O=C(Cn1ncc2cnc(OCCC3CC3)nc21)Nc1ccn2ncnc2c1 [Example 762, 2-[6-(2-Cyclopropylethoxy)-1H-pyrazolo[3,4-d]pyrimidin-1-yl]-N-([1,2,4]triazolo[1,5-a]pyridin-7-yl)acetamide]
activation at 50 µM [1]: 37%

SMILES: CC1CCN(c2ncc3cnn(CC(=O)Nc4ccn5ncnc5c4)c3n2)CC1 [Example 763]
Nav1.1 current amplification rate (%) [2]: 98%

SMILES: O=C(Cn1ncc2cnc(N3CCC4(CCC4)C3)nc21)Nc1ccn2ncnc2c1 [Example 765]
Nav1.1 current amplification rate (%) [2]: 25%

SMILES: O=C(Cn1ncc2cnc(N3CCC4(CCC4)CC3)nc21)Nc1ccn2ncnc2c1 [Example 766]
Nav1.1 current amplification rate (%) [2]: 41%

SMILES: O=C(Cn1ncc2cnc(N3CCOCC3)nc21)Nc1ccn2ncnc2c1 [Example 767]
Nav1.1 current amplification rate (%) (Concentration for evaluation 10 μM, HEK293 cell line stably expressing human Nav1.1): 60%

SMILES: O=C(Cn1ncc2cnc(N3CCC(F)(F)CC3)nc21)Nc1ccn2ncnc2c1 [Example 768]
Nav1.1 current amplification rate (%) [2]: 18%

SMILES: Cc1ccc(-c2ncc3cnn(CC(=O)Nc4ccn5ncnc5c4)c3n2)o1 [Example 772]
Nav1.1 current amplification rate (%) [3]: 35%

SMILES: O=C(Cn1ncc2cnc(-c3ccc(Cl)s3)nc21)Nc1ccn2ncnc2c1 [Example 774]
Nav1.1 current amplification rate (%) [2]: 50%

SMILES: Cc1cccc(F)c1Nc1ncc2cnn(CC(=O)Nc3ccn4ncnc4c3)c2n1 [Example 775]
Nav1.1 current amplification rate (%) [3]: 12%

SMILES: Cc1ccc(F)c(Nc2ncc3cnn(CC(=O)Nc4ccn5ncnc5c4)c3n2)c1 [Example 776]
Nav1.1 current amplification rate (%) [3]: 17%

SMILES: N#Cc1ccc(-c2ncc3cnn(CC(=O)Nc4ccn5ncnc5c4)c3n2)s1 [Example 778]
Nav1.1 current amplification rate (%) [3]: 13%

SMILES: O=C(Cn1ncc2cnc(-c3ccc(C(F)(F)F)s3)nc21)Nc1ccn2ncnc2c1 [Example 779]
Nav1.1 current amplification rate (%) [2]: 44%

SMILES: CC(C)CCOc1ncc2cnn(CC(=O)Nc3ccn4ncnc4c3)c2n1 [Example 780]
Nav1.1 current amplification rate (%) [2]: 10%

SMILES: Cc1cc(-c2ncc3cnn(CC(=O)Nc4ccn5ncnc5c4)c3n2)oc1C [Example 781]
Nav1.1 current amplification rate (%) [3]: 15%

SMILES: O=C(Cn1ncc2cnc(N3CC(C4CC4)C3)nc21)Nc1ccn2ncnc2c1 [Example 782]
Nav1.1 current amplification rate (%) [3]: 64%

Other lines, results leading:

Nav1.1 current amplification rate (%) (Concentration for evaluation 3 μM, HEK293 cell line stably expressing human Nav1.1): 11%
SMILES: Cc1cccc(F)c1Oc1ncc2cnn(CC(=O)Nc3ccn4ncnc4c3)c2n1 [Example 783]

Nav1.1 current amplification rate (%) [2]: 45%
SMILES: CC1=CCN(c2ncc3cnn(CC(=O)Nc4ccn5ncnc5c4)c3n2)CC1 [Example 784]

Nav1.1 current amplification rate (%) [2]: 34%
SMILES: O=C(Cn1ncc2cnc(C3=CCCCC3)nc21)Nc1ccn2ncnc2c1 [Example 786]

Nav1.1 current amplification rate (%) [2]: 50%
SMILES: Cc1ccc(-c2ncc3cnn(CC(=O)Nc4ccn5ncnc5c4)c3n2)cc1 [Example 787]

Nav1.1 current amplification rate (%) [2]: 174%
SMILES: CC1CCN(c2ncc3cnn(CC(=O)Nc4ccn5ncnc5c4)c3n2)CC1(F)F (stereo not shown) [Example 788]

Nav1.1 current amplification rate (%) [2]: 36%
SMILES: CCC1(C)CCN(c2ncc3cnn(CC(=O)Nc4ccn5ncnc5c4)c3n2)CC1 [Example 789]

Nav1.1 current amplification rate (%) [2]: 31%
SMILES: CN(CCC1CC1)c1ncc2cnn(CC(=O)Nc3ccn4ncnc4c3)c2n1 [Example 790]

Nav1.1 current amplification rate (%) [3]: 14%
SMILES: COc1cccc(F)c1-c1ncc2cnn(CC(=O)Nc3ccn4ncnc4c3)c2n1 [Example 791]

Nav1.1 current amplification rate (%) [2]: 161%
SMILES: O=C(Cn1ncc2cnc(N3CCC4(CC4)C(F)(F)C3)nc21)Nc1ccn2ncnc2c1 [Example 792]

Nav1.1 current amplification rate (%) [3]: 55%
SMILES: CC1CCC(F)(F)CN1c1ncc2cnn(CC(=O)Nc3ccn4ncnc4c3)c2n1 (stereo not shown) [Example 793]

Nav1.1 current amplification rate (%) [2]: 27%
SMILES: CN(c1ncc2cnn(CC(=O)Nc3ccn4ncnc4c3)c2n1)C1CC1 [Example 794]

Nav1.1 current amplification rate (%) [4]: 66%
SMILES: CN(c1ncc2cnn(CC(=O)Nc3ccn4ncnc4c3)c2n1)C1CCC(F)(F)C1 (stereo not shown) [Example 796]

Nav1.1 current amplification rate (%) [4]: 66%
SMILES: CN(c1ncc2cnn(CC(=O)Nc3ccn4ncnc4c3)c2n1)C1CCC1 [Example 797]

Nav1.1 current amplification rate (%) [4]: 193%
SMILES: CN(CC1CCC1)c1ncc2cnn(CC(=O)Nc3ccn4ncnc4c3)c2n1 [Example 798]

Nav1.1 current amplification rate (%) [4]: 35%
SMILES: CN(CC1CC(F)(F)C1)c1ncc2cnn(CC(=O)Nc3ccn4ncnc4c3)c2n1 [Example 799]

Nav1.1 current amplification rate (%) [4]: 55%
SMILES: CN(CC1CC1)c1ncc2cnn(CC(=O)Nc3ccn4ncnc4c3)c2n1 [Example 800]

Nav1.1 current amplification rate (%) [4]: 122%
SMILES: CN(c1ncc2cnn(CC(=O)Nc3ccn4ncnc4c3)c2n1)C1CCCC1(F)F (stereo not shown) [Example 801]
